From patent US7091197B2, “Beta-lactamase inhibitor prodrug” (Pfizer Inc., priority 2002, dated 2006)
≈ marks a conversion by molar mass, not a printed value. Marks after values point to notes of the source that are not given here. One block for each compound: values may come before it.

How the values were obtained:
[1] = biological target: T1, BRO-2 β-lactamase (M. catarrhalis 87A1178 ATCC43617) (Moraxella catarrhalis, UniProt Q59514); test: β-lactamase inhibition in cell extracts, BRO-2; assay type: biochemical
T1 sequence (Q59514 1-313 D293G): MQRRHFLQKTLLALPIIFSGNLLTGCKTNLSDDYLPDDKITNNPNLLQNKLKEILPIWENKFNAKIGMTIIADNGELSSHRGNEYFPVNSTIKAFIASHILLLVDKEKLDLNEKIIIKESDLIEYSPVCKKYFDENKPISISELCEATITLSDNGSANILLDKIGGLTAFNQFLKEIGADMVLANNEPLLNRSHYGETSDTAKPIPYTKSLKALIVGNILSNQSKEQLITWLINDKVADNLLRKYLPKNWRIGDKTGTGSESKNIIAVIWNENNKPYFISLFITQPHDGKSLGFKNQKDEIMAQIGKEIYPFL

[2] = Hepatic extraction, human hepatocytes; assay type: in vitro ADME
Source text: (§1) L. and A. Barve, 1998. Linear correlation of the fraction of oral dose absorbed of 64 drugs between humans and rats. Pharm. Res. 15:1792–1795.). Based upon this correlation, the rat was used to predict human absorption. […] Thus, oral bioavailability assessments in rats should correlate well with the fraction absorbed in humans.

[3] = Hepatic extraction, rat hepatocytes; assay type: in vitro ADME
Source text: as §1

[4] = tested on: Eschericia coli (51A0257); test: Murine systemic infection model, E. coli; assay type: in vivo; details: Escherichia coli, 96 h, oral, single agent, E. coli 51A0257, survival day 4
[5] = tested on: Staphylococcus aureus (01A0400); test: Murine systemic infection model, S. aureus; assay type: in vivo; details: 96 h, oral, single agent, S. aureus 01A0400, survival day 4
[6] = tested on: Haemophilus influenzae (54A1218); test: Gerbil otitis media model, H. influenzae; assay type: in vivo
[7] = tested on: Streptococcus pneumoniae (02J1016); test: Mouse pneumonia model, S. pneumoniae 02J1016; assay type: in vivo; details: 240 h, oral, single agent, survival day 10
[8] = tested on: Streptococcus pneumoniae (02J1095); test: Mouse pneumonia model, S. pneumoniae 02J1095; assay type: in vivo; details: 240 h, oral, single agent, survival day 10
[9] = tested on: Moraxella catarrhalis (87A1115); test: Murine systemic infection model, M. catarrhalis; assay type: in vivo; details: 96 h, oral, single agent, M. catarrhalis 87A1115, survival day 4
[10] = tested on: Haemophilus influenzae (54A1218); test: Murine systemic infection model, H. influenzae; assay type: in vivo; details: 96 h, oral, single agent, H. influenzae 54A1218, survival day 4
[11] = tested on: 21 penicillin-resistant strains of S. pneumoniae; test: microbe, parasite or virus in culture; assay type: cell-based; details: Streptococcus pneumoniae; some S. pneumoniae clinical isolates; read-out: MICs of strains with high-level resistance
[12] = tested on: Klebsiella pneumonaie (53A0031); test: Murine systemic infection model, K. pneumoniae; assay type: in vivo; details: 96 h, oral, single agent, K. pneumoniae 53A0031, survival day 4
[13] = Chemical (pH) stability in solution; assay type: physicochemical
Protocol: Buffers were appropriately formulated to achieve the desired pH of each incubation. […] The temperature of the incubation was regulated with a 96-well heat block. Incubations were performed at 25° C. and 37° C. […] An apparent first-order half-life could then be estimated as ln 2/kd.

BRO-1 and BRO-2 enzymes = BRO-1 and BRO-2 enzymes (Moraxella catarrhalis, UniProt Q59514); test: β-lactamases from 30 recent clinical isolates of M. catarrhalis; assay type: biochemical; details: BRO-1 and BRO-2 enzymes from 30 recent clinical isolates of M. catarrhalis
[14] = in vivo, cited from earlier work
[15] = clavulanate in the Augmentin suspension; room temperature, 10 days; cited from earlier work
[16] = biological target: E. coli TEM-1 beta-lactamase (Escherichia coli, UniProt P62593); test: Beta-lactamase inhibitory activity at intestinal pH values; assay type: biochemical
[17] = Prodrug 3 suspension stability (0.5% methylcellulose); assay type: physicochemical; details: for Potency (percent) in suspension: 1.51 mg/ml, un-buffered 0.5% methylcellulose, 25° C.
[18] = Portal vein studies in rats; assay type: in vivo; details: portal vein cannulated rats; oral 100 mg/kg; 5, 15 and 30 minutes post dose; not detected, assay LLOQ
Protocol: Portal Vein Studies in Rats: Systemic exposure of Prodrug 3 was also assessed in portal vein cannulated rats following oral administration of the prodrug at a dose of 100 mg/kg. Whole blood aliquots were stabilized in ice cold acid immediately upon sampling at 5, 15 and 30 minutes post dose. No levels of Prodrug 3 were detected in any of the samples (assay LLOQ of 100 ng/ml).

in vitro = details: plasma
Protocol: The incubation consisted of 990 μl of plasma preincubated for 5 minutes at 37° C. in a 96-well heat block. The incubation was initiated with the addition of 10 μl of a 10 mM stock of compound in 100% methanol. Serial aliquots (100 μl) were removed and transferred to 200 μl of 75/25 acetonitrile/3% perchloric acid at 0, 1, 2, 5, 10, 20, 30, and 60 minutes. The samples were centrifuged, the supernatants transferred to injection vials, and 20 μl was injected onto the HPLC in-line with a LC/MS single quadropole mass spectrometer. The LC/MS system was run in the negative ion mode. […] The peak response at each time point was expressed as a percentage of that obtained at time=0. A degradation rate constant (kd) was obtained by regression of these percentages from time=0 minutes to […]. An apparent first-order half-life was then be estimated as ln 2/kd. These determinations were completed in duplicate and the average was reported as shown below.

[19] = buffer, pH 1.2, Half-life (Hours), solution stability
[20] = buffer, pH 2.5, Half-life (Hours), solution stability
[21] = buffer, pH 4, Half-life (Hours), solution stability
[22] = buffer, pH 5, Half-life (Hours), solution stability

E. coli TEM-1 beta-lactamase, sequence (P62593 24-286 limits assumed): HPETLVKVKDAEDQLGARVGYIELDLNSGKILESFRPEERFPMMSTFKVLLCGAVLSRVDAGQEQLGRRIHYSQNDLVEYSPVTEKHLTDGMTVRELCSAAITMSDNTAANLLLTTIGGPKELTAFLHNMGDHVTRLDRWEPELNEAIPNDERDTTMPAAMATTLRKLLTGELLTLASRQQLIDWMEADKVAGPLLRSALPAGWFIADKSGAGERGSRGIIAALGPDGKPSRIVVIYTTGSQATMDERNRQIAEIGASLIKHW
BRO-1 and BRO-2 enzymes, sequence (Q59514 whole entry): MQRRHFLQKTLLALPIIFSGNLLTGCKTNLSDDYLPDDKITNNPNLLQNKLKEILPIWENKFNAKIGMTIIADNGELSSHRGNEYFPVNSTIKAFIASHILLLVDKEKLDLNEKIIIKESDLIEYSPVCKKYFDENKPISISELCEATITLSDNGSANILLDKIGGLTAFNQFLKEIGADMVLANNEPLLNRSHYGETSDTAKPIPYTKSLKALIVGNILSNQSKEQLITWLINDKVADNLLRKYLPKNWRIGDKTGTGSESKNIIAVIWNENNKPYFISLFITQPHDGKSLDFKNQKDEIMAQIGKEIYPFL

SMILES: CC1(C)[C@H](C(=O)O)N2C(=O)[C@@H](CO)[C@H]2S1(=O)=O [Prodrug 6-β-HMPAS, 6-β-hydroxymethylpenicillanic acid sulfone]
- IC50 [1]: 320 nM
- hepatic extraction [2]: minimal hepatic extraction
- hepatic extraction [3]: minimal hepatic extraction

- MIC [11]: 4 to 8 µg/mL (≈ 10.9 to 21.9 µM)
SMILES: CC1(C)S[C@@H]2[C@H](NC(=O)[C@H](N)c3ccc(O)cc3)C(=O)N2[C@H]1C(=O)O [Amoxicillin, amoxicillin]
- ED50 [4]: > 200 mg/kg
- ED50 [5]: > 100 mg/kg
- outcome as a single agent ([6]; gerbil otitis media model): failed
- ED50 [7]: 3.3 mg/kg
- ED50 [8]: 25 mg/kg
- ED50 [9]: > 100 mg/kg
- ED50 [10]: > 100 mg/kg
- ED50 [12]: > 200 mg/kg

SMILES: CC1(C)[C@H](C(=O)[O-])N2C(=O)[C@@H](CO)[C@H]2S1(=O)=O.[Na+] [Na-HMPAS, 4-Thia-1-azabicyclo[3,2,0]heptane-2-carboxylic acid, 6-(hydroxymethyl)-3,3-dimethyl-7-oxo-, 4,4-dioxide, monosodium salt, (2S, 5R, 6R)]
- half-life at 100 μM ([13]; pH buffer, pH 1.2, pH 1.2, 25° C., 100 μM, read-out: Half-life (Hours), solution stability): > 24 h
- half-life at 100 μM ([13]; pH buffer, pH 1.2, pH 1.2, 37° C., 100 μM, read-out: Half-life (Hours), solution stability): > 24 h
- half-life at 100 μM ([13]; pH buffer, pH 2.5, pH 2.5, 25° C., 100 μM, read-out: Half-life (Hours), solution stability): > 24 h
- half-life at 100 μM ([13]; pH buffer, pH 2.5, pH 2.5, 37° C., 100 μM, read-out: Half-life (Hours), solution stability): > 24 h
- half-life at 100 μM ([13]; pH buffer, pH 4, pH 4.0, 25° C., 100 μM, read-out: Half-life (Hours), solution stability): > 24 h
- half-life at 100 μM ([13]; pH buffer, pH 4, pH 4.0, 37° C., 100 μM, read-out: Half-life (Hours), solution stability): > 24 h
- half-life at 100 μM ([13]; pH buffer, pH 5, pH 5.0, 25° C., 100 μM, read-out: Half-life (Hours), solution stability): > 24 h
- half-life at 100 μM ([13]; pH buffer, pH 5, pH 5.0, 37° C., 100 μM, read-out: Half-life (Hours), solution stability): > 24 h
- half-life at 100 μM ([13]; pH buffer, pH 6.5, pH 6.5, 25° C., 100 μM, read-out: Half-life (Hours), solution stability): > 24 h
- half-life at 100 μM ([13]; pH buffer, pH 6.5, pH 6.5, 37° C., 100 μM, read-out: Half-life (Hours), solution stability): > 24 h
- half-life at 100 μM ([13]; pH buffer, pH 7.4, pH 7.4, 25° C., 100 μM, read-out: Half-life (Hours), solution stability): > 24 h
- half-life at 100 μM ([13]; pH buffer, pH 7.4, pH 7.4, 37° C., 100 μM, read-out: Half-life (Hours), solution stability): > 24 h
- IC50 (BRO-1 and BRO-2 enzymes): 190 nM

SMILES: O=C(O)[C@H]1/C(=C/CO)O[C@@H]2CC(=O)N21 [Clavulanate, lithium clavulanate]
- IC50 [1]: 110 nM
- Half-life (Hours), solution stability ([13]; buffer, 100 μM, pH 2.5): 1.2 h
- Half-life (Hours), solution stability ([13]; buffer, 100 μM, pH 4): >24 h
- Half-life (Hours), solution stability ([13]; buffer, 100 μM, pH 5): >24 h
- Half-life (Hours), solution stability ([13]; buffer, 100 μM, pH 6.5): >24 h
- Half-life (Hours), solution stability ([13]; buffer, 100 μM, pH 7.4): >24 h
- half-life at 100 μM [13, 19]: 0.6 h
- half-life at 100 μM [13, 20]: 0.9 h
- half-life at 100 μM [13, 21]: > 24 h
- half-life at 100 μM [13, 22]: > 24 h
- half-life at 100 μM ([13]; buffer, pH 6.5, Half-life (Hours), solution stability): > 24 h
- half-life at 100 μM ([13]; buffer, pH 7.4, Half-life (Hours), solution stability): > 24 h
- fraction that remains unabsorbed from the intestine ([14]; human): 40%
- fraction absorbed into circulation [14]: 60%
- potency retained in suspension [15]: 40%

SMILES: C[C@H](OC(=O)c1ccccc1)OC(=O)[C@@H]1N2C(=O)[C@@H](CO)[C@H]2S(=O)(=O)C1(C)C [Prodrug 3, 4-Thia-1-azabicyclo[3.2.0]heptane-2-carboxylic acid, 6-(hydroxymethyl)-3,3-dimethyl-7-oxo-, (1R)-1-(benzoyloxy)ethyl ester, 4,4-dioxide (2S, 5R, 6R)]
- IC50 ([16]; pH 6.0): > 100000 nM
- IC50 ([16]; pH 7.0): 2200 nM
- ED50 [4]: > 100 mg/kg
- ED50 [5]: > 12.5 mg/kg
- Potency (percent) in suspension ([17]; Day 3): 103%
- Potency (percent) in suspension ([17]; Day 5): 98%
- Potency (percent) in suspension ([17]; Day 7): 104%
- Potency (percent) in suspension ([17]; Day 10, pH ~6.8 initially, 4.7 by day 10): 91*** percent
- potency maintained in suspension ([17]; storage at room temperature for 10 days): greater than 90%
- ED50 ([6]; Haemophilus influenzae, 96 h, oral, single agent, gerbil otitis media, H. influenzae 54A1218, bacterial clearance day 4): > 25 mg/kg
- levels of Prodrug 3 in portal vein blood [18]: < 100 ng/mL
- ED50 [7]: > 25 mg/kg
- Half-life (Hours), solution stability ([13]; buffer, 100 μM, pH 1.2): >24 h
- Half-life (Hours), solution stability ([13]; buffer, 100 μM, pH 2.5): >24 h
- Half-life (Hours), solution stability ([13]; buffer, 100 μM, pH 4): >24 h
- Half-life (Hours), solution stability ([13]; buffer, 100 μM, pH 5): >24 h
- half-life at 100 μM [13, 19]: > 24 h
- half-life at 100 μM [13, 20]: > 24 h
- half-life at 100 μM [13, 21]: > 24 h
- half-life at 100 μM [13, 22]: > 24 h
- half-life at 100 μM ([13]; buffer, pH 7, half-life of conversion of the prodrug to active inhibitor): 0.55 h
- half-life at 100 μM ([13]; solution half-life): 0.5 h
- half-life at 100 μM (in vitro; dog): 2.8 min
- half-life at 100 μM (in vitro; human): < 2 min
- half-life at 100 μM (in vitro; monkey): 3.6 min
- half-life at 100 μM (in vitro; mouse): 2.8 min
- half-life at 100 μM (in vitro; rat): < 2 min
- ED50 [8]: > 25 mg/kg
- ED50 [9]: > 100 mg/kg
- ED50 [10]: > 25 mg/kg
- ED50 [12]: > 25 mg/kg
